Results from patent publication US7745475B2, “Heteroaryl benzamide derivatives as GLK activators” (AstraZeneca AB, priority 2004, dated 2010).

Experiments:
[1] = biological target: T1, recombinant human pancreatic GLK (Homo sapiens, UniProt P35557); test: Enzymatic activity of recombinant human pancreatic GLK (G-6-P dehydrogenase coupled, OD 340 nm); details: comparison in words
T1 sequence (P35557 1-465): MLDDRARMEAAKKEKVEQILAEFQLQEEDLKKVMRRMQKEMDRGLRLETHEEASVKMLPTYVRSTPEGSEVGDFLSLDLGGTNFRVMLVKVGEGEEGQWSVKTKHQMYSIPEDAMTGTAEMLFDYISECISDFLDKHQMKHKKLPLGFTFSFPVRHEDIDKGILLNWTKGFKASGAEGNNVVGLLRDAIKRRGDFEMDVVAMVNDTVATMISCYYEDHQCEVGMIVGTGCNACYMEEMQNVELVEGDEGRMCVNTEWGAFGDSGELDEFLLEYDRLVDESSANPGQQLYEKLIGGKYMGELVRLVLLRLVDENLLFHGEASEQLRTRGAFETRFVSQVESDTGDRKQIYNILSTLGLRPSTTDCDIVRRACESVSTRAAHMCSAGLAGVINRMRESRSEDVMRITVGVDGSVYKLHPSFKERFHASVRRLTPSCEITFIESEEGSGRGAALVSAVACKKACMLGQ

Oral exposure = assay type: in vivo; details: compared with Example II107 in WO 03/015774
Zucker obese fa/fa rats = test: Oral Glucose Tolerance Test (OGTT); assay type: in vivo, rat
Method: (2) Oral Glucose Tolerance Test (OGTT)
Oral glucose tolerance tests were done on conscious Zucker obese fa/fa rats (age 12-13 weeks or older) fed a high fat diet (45% kcal fat) for at least two weeks prior to experimentation. The animals were fasted for 2 hours before use for experiments. A test compound or a vehicle was given orally 120 minutes before oral administration of a glucose solution at a dose of 2 g/kg body weight. Blood glucose levels were measured using a Accucheck glucometer from tail bled samples taken at different time points before and after administration of glucose (time course of […]). A time curve of the blood glucose levels was generated and the area-under-the-curve (AUC) for 120 minutes was calculated (the time of glucose administration being time zero). Percent reduction in glucose excursion was determined using the AUC in the vehicle-control group as zero percent reduction.

[2] = biological target: T1, recombinant human pancreatic GLK; test: biochemical

For Cc1nsc(NC(=O)c2cc(Oc3ccc(S(C)(=O)=O)cc3)cc(O[C@@H](C)CO)c2)n1 [Example 3a, 3-[(1S)-2-hydroxy-1-methylethoxy]-5-[4-(methylsulfonyl)phenoxy]-N-(3-methyl-1,2,4-thiadiazol-5-yl)benzamide], the “EC50 values, Example 3a compared with Example II107 in WO 03/015774” value [1] was “broadly similar”, the oral exposure (Oral exposure) was “superior oral exposure” and the “OGTT activity (percent reduction in glucose excursion, AUC vs vehicle)” value (Zucker obese fa/fa rats; 3 mg/kg, given orally) was 17%. It also gave an EC50 [2] of 0.05 µM.

For C[C@@H](CO)Oc1cc(Oc2ccc(C(=O)N3CCC3)cc2F)cc(C(=O)Nc2ccn(C)n2)c1 [Example 4, 3-[4-(Azetidin-1-ylcarbonyl)-2-fluorophenoxy]-5-[(1S)-2-hydroxy-1-methylethoxy]-N-(1-methyl-1H-pyrazol-3-yl)benzamide], the melting point was 142 °C.

CCn1ccc(NC(=O)c2cc(Oc3ccc(C(=O)N4CCC4)cc3F)cc(O[C@@H](C)CO)c2)n1 [Example 9, 3-{[4-(Azetidin-1-ylcarbonyl)-2-fluorophenyl]oxy}-N-(1-ethyl-1H-pyrazol-3-yl)-5-{[(1S)-2-hydroxy-1-methylethyl]oxy}benzamide] showed a melting point of 124 °C.

In the case of Cc1nsc(NC(=O)c2cc(Oc3ccc(C(=O)N4CCC4)cc3F)cc(O[C@@H](C)CO)c2)n1 [Example 27, 3-[4-(Azetidin-1-ylcarbonyl)-2-fluorophenoxy]-5-[(1S)-2-hydroxy-1-methylethoxy]-N-(3-methyl-1,2,4-thiadiazol-5-yl)benzamide], the melting point is reported as 173 to 175 °C.

With Cc1cnc(NC(=O)c2cc(OCCc3ccsc3)cc(OC(C)C)c2)s1 [Example II107, reference compound] the OGTT activity (Zucker obese fa/fa rats; 10 mg/kg) was “not active”.

C[C@@H](CO)Oc1cc(Oc2ccc(S(C)(=O)=O)cc2)cc(C(=O)Nc2ccn(C)n2)c1 [compound 3, 3-[(1S)-2-Hydroxy-1-methylethoxy]-N-(1-methyl-1H-pyrazol-3-yl)-5-[4-(methylsulfonyl)phenoxy]benzamide] showed a melting point of 126 to 132 °C.
